Results from ChEMBL document CHEMBL1158855, “Study on cytotoxic oxygenated desmosterols isolated from the red alga Galaxaura marginata” (1997).
In brackets after ≈: the same amount, converted by molar mass.

Key:
Type in all cases: functional
Conditions in all cases: read-out: ED50 (the source's name)
[1] = test system: KB; test: Cytotoxicity against human KB cells by MTT assay
[2] = test system: A549; test: Cytotoxicity against human A549 cells by MTT assay
[3] = test system: P388; test: Cytotoxicity against mouse P388 cells by MTT assay
[4] = test system: HT-29; test: Cytotoxicity against human HT29 cells by MTT assay

## C=C(C)C(CC[C@@H](C)[C@H]1CC[C@H]2[C@@H]3C[C@@H](O)C4=CC(=O)CC[C@]4(C)[C@H]3CC[C@]12C)OO (stereo not given in full)
[1]
  EC50: 0.79 µg/mL (≈ 1.83 µM)
[2]
  EC50: 0.58 µg/mL (≈ 1.35 µM)
[3]
  EC50: 0.22 µg/mL (≈ 0.511 µM)
[4]
  EC50: 0.47 µg/mL (≈ 1.09 µM)

## C=C(C)C(O)CC[C@@H](C)[C@H]1CC[C@H]2[C@@H]3C[C@@H](O)C4=CC(=O)CC[C@]4(C)[C@H]3CC[C@]12C (stereo not given in full)
[1]
  EC50: 0.83 µg/mL (≈ 2 µM)
[2]
  EC50: 2.37 µg/mL (≈ 5.72 µM)
[3]
  EC50: 0.19 µg/mL (≈ 0.458 µM)
[4]
  EC50: 0.3 µg/mL (≈ 0.724 µM)

## C=C(C)C(=O)CC[C@@H](C)[C@H]1CC[C@H]2[C@@H]3CC(=O)C4=CC(=O)CC[C@]4(C)[C@H]3CC[C@]12C
[1]
  EC50: 0.24 µg/mL (≈ 0.585 µM)
[2]
  EC50: 0.27 µg/mL (≈ 0.658 µM)
[3]
  EC50: 0.11 µg/mL (≈ 0.268 µM)
[4]
  EC50: 0.3 µg/mL (≈ 0.731 µM)

## C[C@H](C/C=C/C(C)(C)OO)[C@H]1CC[C@H]2[C@@H]3C[C@@H](O)C4=CC(=O)CC[C@]4(C)[C@H]3CC[C@]12C
[1]
  EC50: 0.4 µg/mL (≈ 0.929 µM)
[2]
  EC50: 1 µg/mL (≈ 2.32 µM)
[3]
  EC50: 0.28 µg/mL (≈ 0.65 µM)
[4]
  EC50: 0.63 µg/mL (≈ 1.46 µM)

## C[C@H](C/C=C/C(C)(C)O)[C@H]1CC[C@H]2[C@@H]3C[C@@H](O)C4=CC(=O)CC[C@]4(C)[C@H]3CC[C@]12C
[1]
  EC50: 0.45 µg/mL (≈ 1.09 µM)
[2]
  EC50: 1.54 µg/mL (≈ 3.71 µM)
[3]
  EC50: 0.14 µg/mL (≈ 0.338 µM)
[4]
  EC50: 0.55 µg/mL (≈ 1.33 µM)
